Literature values, collected in patent US6284845A, “Low temperature cure carboxyl terminated polyesters” (McWhorter Technologies, priority 1999, dated 2001).

Experiments:
rabbit [1] = test system: rabbit
rabbit [2] = test system: rabbit; remark: listed apart in the source

SMILES	Acute oral toxicity LD50 (rat) [mg/kg]	Primary eye irritation (rabbit [1])	Primary skin irritation (rabbit [2])	Primary skin irritation (guinea pig)
CC(O)CN(CC(C)O)C(=O)CCCCC(=O)N(CC(C)O)CC(C)O (stereo not drawn) [Primid QM-1260, N,N,N',N'-Tetrakis (2-hydroxypropyl) adipamide]	> 2000	not irritating	not irritating	
O=C(CCCCC(=O)N(CCO)CCO)N(CCO)CCO [Primid XL-552, N,N,N',N'-Tetrakis (2-hydroxyethyl) adipamide]	> 5000	not irritating		not irritating
